Results on 8 compounds are retold here after patent US20260274829A1, “NEW E3 UBIQUITIN LIGASE LIGAND, PROTEIN DEGRADATION AGENT AND USE THEREOF” (GLUETACS THERAPEUTICS (SHANGHAI) CO., LTD., priority 2023, published 2026).

What all share (assay type): cell-based
One test addresses T1, WEE1 (Homo sapiens, UniProt P30291+Q96SW2).
T1 construct: endogenous in cells; host or cells: hPBMC
Briefly: Western blot degradation of WEE1 in hPBMC. A digest of the protocol:
(§1)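 Percent target remaining and DC50 derive from grayscale of Western bands in degrader-treated hPBMC, normalized to an internal control protein and compared with DMSO samples. Gels were SDS-PAGE, transferred onto nitrocellulose and blocked one hour at room temperature.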
In general terms: In western blotting, separated proteins are transferred to a membrane and probed.

The next test addresses T2, IKZF1 (Homo sapiens, UniProt Q13422+Q96SW2).
T2 construct: endogenous in cells; host or cells: hPBMC
Briefly: Western blot degradation of IKZF1 in hPBMC. A digest of the protocol:
as §1

The next test addresses T3, IKZF2 (Homo sapiens, UniProt Q96SW2+Q9UKS7).
T3 construct: endogenous in cells; host or cells: hPBMC
Description: Western blot degradation of IKZF2 in hPBMC. Summed up:
as §1

The target of a further test is T4, IKZF3 (Homo sapiens, UniProt Q96SW2+Q9UKT9).
T4 construct: endogenous in cells; host or cells: hPBMC
Briefly: Western blot degradation of IKZF3 in hPBMC. Summed up:
as §1

The next test has as its target T5, CK1a (Homo sapiens, UniProt P48729+Q96SW2).
T5 construct: endogenous in cells; host or cells: hPBMC
Briefly: Western blot degradation of CK1a in hPBMC. A digest of the protocol: as §1

In another test the target is T6, GSPT1 (Homo sapiens, UniProt P15170+Q96SW2).
T6 construct: endogenous in cells; host or cells: hPBMC
Briefly: Western blot degradation of GSPT1 in hPBMC. Summed up: as §1

T2 sequence (Q13422 whole entry): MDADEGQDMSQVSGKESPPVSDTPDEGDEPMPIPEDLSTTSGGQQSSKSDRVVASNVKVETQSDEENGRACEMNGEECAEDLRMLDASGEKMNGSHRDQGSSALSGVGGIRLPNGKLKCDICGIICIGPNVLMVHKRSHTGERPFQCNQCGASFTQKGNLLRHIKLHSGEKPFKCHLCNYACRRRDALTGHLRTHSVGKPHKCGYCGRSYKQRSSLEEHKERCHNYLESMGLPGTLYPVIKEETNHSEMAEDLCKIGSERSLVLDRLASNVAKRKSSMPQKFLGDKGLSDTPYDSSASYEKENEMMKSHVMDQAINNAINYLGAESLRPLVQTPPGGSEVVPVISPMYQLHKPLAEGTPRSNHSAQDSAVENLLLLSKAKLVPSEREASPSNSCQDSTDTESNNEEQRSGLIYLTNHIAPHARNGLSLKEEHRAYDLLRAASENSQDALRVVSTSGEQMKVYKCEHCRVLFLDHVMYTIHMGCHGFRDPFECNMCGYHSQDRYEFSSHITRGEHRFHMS
T2 sequence (Q96SW2 whole entry): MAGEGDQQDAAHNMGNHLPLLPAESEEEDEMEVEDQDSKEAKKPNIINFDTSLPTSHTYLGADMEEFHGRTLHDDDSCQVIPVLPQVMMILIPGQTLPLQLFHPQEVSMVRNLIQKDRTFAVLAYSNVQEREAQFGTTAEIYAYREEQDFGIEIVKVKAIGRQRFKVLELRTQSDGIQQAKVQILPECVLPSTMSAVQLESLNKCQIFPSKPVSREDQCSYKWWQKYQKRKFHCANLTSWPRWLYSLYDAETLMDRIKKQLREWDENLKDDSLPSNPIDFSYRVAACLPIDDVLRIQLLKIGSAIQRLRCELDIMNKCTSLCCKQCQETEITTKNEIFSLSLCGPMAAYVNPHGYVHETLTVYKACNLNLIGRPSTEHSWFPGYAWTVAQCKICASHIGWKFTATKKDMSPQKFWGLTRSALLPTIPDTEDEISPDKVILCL
T2 sequence (Q16531 whole entry partner): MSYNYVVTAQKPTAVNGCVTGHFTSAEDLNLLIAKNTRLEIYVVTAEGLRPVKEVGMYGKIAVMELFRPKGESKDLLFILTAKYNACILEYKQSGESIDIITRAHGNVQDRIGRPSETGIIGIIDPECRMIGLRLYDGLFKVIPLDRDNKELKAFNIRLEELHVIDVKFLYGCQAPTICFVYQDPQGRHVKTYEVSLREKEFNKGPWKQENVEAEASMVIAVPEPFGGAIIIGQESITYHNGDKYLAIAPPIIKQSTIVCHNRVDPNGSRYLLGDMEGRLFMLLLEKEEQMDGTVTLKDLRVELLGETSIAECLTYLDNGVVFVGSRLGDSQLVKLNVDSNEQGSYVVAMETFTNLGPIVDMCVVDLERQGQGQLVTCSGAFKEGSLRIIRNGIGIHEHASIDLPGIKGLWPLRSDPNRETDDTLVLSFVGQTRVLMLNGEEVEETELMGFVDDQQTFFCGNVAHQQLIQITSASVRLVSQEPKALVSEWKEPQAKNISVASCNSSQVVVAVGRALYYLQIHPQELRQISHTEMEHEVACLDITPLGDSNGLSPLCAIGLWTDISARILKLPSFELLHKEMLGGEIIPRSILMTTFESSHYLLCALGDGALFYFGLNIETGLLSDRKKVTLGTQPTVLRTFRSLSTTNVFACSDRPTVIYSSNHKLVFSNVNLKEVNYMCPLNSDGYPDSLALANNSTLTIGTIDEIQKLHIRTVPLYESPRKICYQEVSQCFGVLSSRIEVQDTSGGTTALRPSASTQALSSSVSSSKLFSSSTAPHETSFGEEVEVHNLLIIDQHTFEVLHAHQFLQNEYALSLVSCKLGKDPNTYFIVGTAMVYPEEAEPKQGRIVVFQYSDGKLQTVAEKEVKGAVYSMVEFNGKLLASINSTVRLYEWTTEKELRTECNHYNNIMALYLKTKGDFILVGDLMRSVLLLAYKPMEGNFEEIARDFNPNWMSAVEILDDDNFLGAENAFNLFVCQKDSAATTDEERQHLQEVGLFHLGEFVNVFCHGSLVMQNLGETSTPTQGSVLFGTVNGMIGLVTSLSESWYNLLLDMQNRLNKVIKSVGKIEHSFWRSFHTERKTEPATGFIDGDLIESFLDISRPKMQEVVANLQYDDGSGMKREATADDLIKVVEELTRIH
T6 sequence (P15170 whole entry): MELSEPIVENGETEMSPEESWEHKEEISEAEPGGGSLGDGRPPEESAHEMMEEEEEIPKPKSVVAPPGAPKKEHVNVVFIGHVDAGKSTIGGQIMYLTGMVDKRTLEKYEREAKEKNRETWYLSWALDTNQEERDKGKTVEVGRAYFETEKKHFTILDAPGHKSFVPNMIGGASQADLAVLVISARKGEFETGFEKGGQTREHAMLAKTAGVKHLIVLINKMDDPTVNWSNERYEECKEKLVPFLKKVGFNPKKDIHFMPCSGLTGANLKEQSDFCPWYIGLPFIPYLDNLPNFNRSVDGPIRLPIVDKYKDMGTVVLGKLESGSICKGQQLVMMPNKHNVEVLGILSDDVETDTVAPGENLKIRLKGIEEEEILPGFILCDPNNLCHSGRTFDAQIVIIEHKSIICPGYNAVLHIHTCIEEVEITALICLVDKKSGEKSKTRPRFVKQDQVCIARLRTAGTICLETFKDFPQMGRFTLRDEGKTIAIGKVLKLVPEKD
T6 sequence (Q96SW2 whole entry): as the sequence (Q96SW2 whole entry) above
T6 sequence (Q16531 whole entry partner): as the sequence (Q16531 whole entry partner) above
T5 sequence (P48729 whole entry): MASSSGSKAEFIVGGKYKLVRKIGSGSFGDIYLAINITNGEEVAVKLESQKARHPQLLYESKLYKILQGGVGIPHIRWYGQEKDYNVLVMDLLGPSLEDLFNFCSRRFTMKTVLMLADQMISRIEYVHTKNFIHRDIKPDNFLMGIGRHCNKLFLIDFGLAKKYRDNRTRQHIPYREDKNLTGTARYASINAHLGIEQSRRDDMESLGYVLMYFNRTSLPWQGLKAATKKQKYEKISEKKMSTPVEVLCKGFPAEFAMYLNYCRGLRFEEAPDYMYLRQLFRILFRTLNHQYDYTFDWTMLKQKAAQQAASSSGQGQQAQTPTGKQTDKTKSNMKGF
T5 sequence (Q96SW2 whole entry): as the sequence (Q96SW2 whole entry) above
T5 sequence (Q16531 whole entry partner): as the sequence (Q16531 whole entry partner) above
T3 sequence (Q9UKS7 whole entry): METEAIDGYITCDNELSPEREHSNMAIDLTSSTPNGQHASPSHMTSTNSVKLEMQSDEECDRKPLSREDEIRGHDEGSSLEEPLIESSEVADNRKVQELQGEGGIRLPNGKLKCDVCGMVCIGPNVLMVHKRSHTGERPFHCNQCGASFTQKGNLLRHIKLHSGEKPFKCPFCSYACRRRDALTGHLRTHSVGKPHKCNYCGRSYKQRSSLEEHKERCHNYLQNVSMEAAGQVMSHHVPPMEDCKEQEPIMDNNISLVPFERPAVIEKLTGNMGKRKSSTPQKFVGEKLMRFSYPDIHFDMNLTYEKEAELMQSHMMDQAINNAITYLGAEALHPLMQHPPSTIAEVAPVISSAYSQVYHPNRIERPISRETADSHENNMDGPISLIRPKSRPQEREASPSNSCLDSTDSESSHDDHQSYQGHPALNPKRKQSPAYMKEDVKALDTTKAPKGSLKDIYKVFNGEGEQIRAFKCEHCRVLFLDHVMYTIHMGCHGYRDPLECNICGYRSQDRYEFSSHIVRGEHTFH
T3 sequence (Q96SW2 whole entry): as the sequence (Q96SW2 whole entry) above
T3 sequence (Q16531 whole entry partner): as the sequence (Q16531 whole entry partner) above
T1 sequence (P30291 whole entry): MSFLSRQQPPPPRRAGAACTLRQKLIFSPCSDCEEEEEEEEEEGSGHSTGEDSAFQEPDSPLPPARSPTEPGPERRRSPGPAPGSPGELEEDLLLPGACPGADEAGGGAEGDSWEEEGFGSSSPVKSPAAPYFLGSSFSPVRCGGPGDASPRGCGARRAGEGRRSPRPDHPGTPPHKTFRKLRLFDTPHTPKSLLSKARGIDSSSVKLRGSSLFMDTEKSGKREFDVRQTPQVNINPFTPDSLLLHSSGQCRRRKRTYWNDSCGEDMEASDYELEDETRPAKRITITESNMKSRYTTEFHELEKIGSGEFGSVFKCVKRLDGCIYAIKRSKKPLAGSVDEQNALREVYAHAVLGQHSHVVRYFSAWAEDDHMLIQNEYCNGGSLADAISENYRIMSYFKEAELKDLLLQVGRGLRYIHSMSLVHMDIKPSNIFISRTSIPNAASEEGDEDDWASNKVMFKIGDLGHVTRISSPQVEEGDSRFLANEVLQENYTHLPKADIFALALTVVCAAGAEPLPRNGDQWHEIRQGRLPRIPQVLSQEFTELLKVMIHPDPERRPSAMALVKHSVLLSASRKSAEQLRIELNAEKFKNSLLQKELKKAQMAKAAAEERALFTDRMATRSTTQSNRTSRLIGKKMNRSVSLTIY
T1 sequence (Q96SW2 whole entry): as the sequence (Q96SW2 whole entry) above
T1 sequence (Q16531 whole entry partner): as the sequence (Q16531 whole entry partner) above

In the case of `O=C1CCN(c2cncc(CO)n2)C(=O)N1` [GT-07632, 1-(6-(hydroxymethyl)pyrazin-2-yl)dihydropyrimidine-2,4(1H,3H)-dione], the “Degradation of substrate protein WEE1 (substrate protein remaining %)” value at WEE1 is recorded as “A (A is defined as 0% ≤ substrate protein remaining % ≤ 80%)”. Besides, the “Degradation of substrate protein IKZF1 (substrate protein remaining %)” value on IKZF1 is “A (A is defined as 0% ≤ substrate protein remaining % ≤ 80%)”. The “Degradation of substrate protein IKZF2 (substrate protein remaining %)” value on IKZF2 was “A (A is defined as 0% ≤ substrate protein remaining % ≤ 80%)”. Moreover, the “Degradation of substrate protein IKZF3 (substrate protein remaining %)” value on IKZF3 is “A (A is defined as 0% ≤ substrate protein remaining % ≤ 80%)”. Moreover, at CK1a, the “Degradation of substrate protein CK1a (substrate protein remaining %)” value is “A (A is defined as 0% ≤ substrate protein remaining % ≤ 80%)”. Moreover, at GSPT1, the “Degradation of substrate protein GSPT1 (substrate protein remaining %)” value is recorded as “B (B is defined as substrate protein remaining % > 80%)”.
For `O=C1CCN(c2cnc(F)c(CCl)c2)C(=O)N1` [GT-07633, 1-(5-(chloromethyl)-6-fluoropyridin-3-yl)dihydropyrimidine-2,4(1H,3H)-dione], the “Degradation of substrate protein WEE1 (substrate protein remaining %)” value at WEE1 was “A (A is defined as 0% ≤ substrate protein remaining % ≤ 80%)”. Also, the “Degradation of substrate protein IKZF1 (substrate protein remaining %)” value on IKZF1 is “B (B is defined as substrate protein remaining % > 80%)”. The “Degradation of substrate protein IKZF2 (substrate protein remaining %)” value on IKZF2 is given as “A (A is defined as 0% ≤ substrate protein remaining % ≤ 80%)”. Also, the “Degradation of substrate protein IKZF3 (substrate protein remaining %)” value on IKZF3 was “B (B is defined as substrate protein remaining % > 80%)”. Besides, on CK1a, the “Degradation of substrate protein CK1a (substrate protein remaining %)” value is “A (A is defined as 0% ≤ substrate protein remaining % ≤ 80%)”. Also, the “Degradation of substrate protein GSPT1 (substrate protein remaining %)” value on GSPT1 is on record as “B (B is defined as substrate protein remaining % > 80%)”.
Take `O=C1CCN(c2cnc(CO)cn2)C(=O)N1` [GT-07634, 1-(5-(hydroxymethyl)pyrazin-2-yl)dihydropyrimidine-2,4(1H,3H)-dione]: the “Degradation of substrate protein WEE1 (substrate protein remaining %)” value on WEE1 is listed as “A (A is defined as 0% ≤ substrate protein remaining % ≤ 80%)”. Also, the “Degradation of substrate protein IKZF1 (substrate protein remaining %)” value on IKZF1 is recorded as “A (A is defined as 0% ≤ substrate protein remaining % ≤ 80%)”. For the same compound, the “Degradation of substrate protein IKZF2 (substrate protein remaining %)” value at IKZF2 is on record as “A (A is defined as 0% ≤ substrate protein remaining % ≤ 80%)”. Moreover, at IKZF3, the “Degradation of substrate protein IKZF3 (substrate protein remaining %)” value is “A (A is defined as 0% ≤ substrate protein remaining % ≤ 80%)”. Moreover, the “Degradation of substrate protein CK1a (substrate protein remaining %)” value at CK1a was “A (A is defined as 0% ≤ substrate protein remaining % ≤ 80%)”. For the same compound, the “Degradation of substrate protein GSPT1 (substrate protein remaining %)” value on GSPT1 is reported as “B (B is defined as substrate protein remaining % > 80%)”.
As to `O=C1CCN(c2cnc(CCl)cn2)C(=O)N1` [GT-07635, 1-(5-(chloromethyl)pyrazin-2-yl)dihydropyrimidine-2,4(1H,3H)-dione], the “Degradation of substrate protein WEE1 (substrate protein remaining %)” value at WEE1 is recorded as “A (A is defined as 0% ≤ substrate protein remaining % ≤ 80%)”. The “Degradation of substrate protein IKZF1 (substrate protein remaining %)” value on IKZF1 is “A (A is defined as 0% ≤ substrate protein remaining % ≤ 80%)”. Further, the “Degradation of substrate protein IKZF2 (substrate protein remaining %)” value on IKZF2 is “A (A is defined as 0% ≤ substrate protein remaining % ≤ 80%)”. Besides, the “Degradation of substrate protein IKZF3 (substrate protein remaining %)” value at IKZF3 is “A (A is defined as 0% ≤ substrate protein remaining % ≤ 80%)”. Besides, the “Degradation of substrate protein CK1a (substrate protein remaining %)” value at CK1a was “A (A is defined as 0% ≤ substrate protein remaining % ≤ 80%)”. For the same compound, the “Degradation of substrate protein GSPT1 (substrate protein remaining %)” value at GSPT1 is given as “B (B is defined as substrate protein remaining % > 80%)”.
With `O=C1CCC(c2ccc(CO)nn2)C(=O)N1` (stereo not drawn) [GT-07636, 3-(6-(hydroxymethyl)pyridazin-3-yl)piperidine-2,6-dione], the “Degradation of substrate protein WEE1 (substrate protein remaining %)” value on WEE1 is “B (B is defined as substrate protein remaining % > 80%)”. The “Degradation of substrate protein IKZF1 (substrate protein remaining %)” value on IKZF1 is “A (A is defined as 0% ≤ substrate protein remaining % ≤ 80%)”. In addition, the “Degradation of substrate protein IKZF2 (substrate protein remaining %)” value on IKZF2 is given as “A (A is defined as 0% ≤ substrate protein remaining % ≤ 80%)”. In addition, the “Degradation of substrate protein IKZF3 (substrate protein remaining %)” value at IKZF3 is listed as “A (A is defined as 0% ≤ substrate protein remaining % ≤ 80%)”. Besides, at CK1a, the “Degradation of substrate protein CK1a (substrate protein remaining %)” value is “B (B is defined as substrate protein remaining % > 80%)”. The “Degradation of substrate protein GSPT1 (substrate protein remaining %)” value at GSPT1 is given as “A (A is defined as 0% ≤ substrate protein remaining % ≤ 80%)”.
Consider `CC(C)(C)[Si](C)(C)OCc1ccncc1NC1CCC(=O)NC1=O` (stereo not drawn) [GT-07638, 3-((4-(((tert-butyldimethylsilyl)oxy)methyl)pyridin-3-yl)amino)piperidine-2,6-dione], for which, on WEE1, the “Degradation of substrate protein WEE1 (substrate protein remaining %)” value is recorded as “A (A is defined as 0% ≤ substrate protein remaining % ≤ 80%)”. Further, the “Degradation of substrate protein IKZF1 (substrate protein remaining %)” value at IKZF1 is listed as “B (B is defined as substrate protein remaining % > 80%)”. Also, at IKZF2, the “Degradation of substrate protein IKZF2 (substrate protein remaining %)” value is “A (A is defined as 0% ≤ substrate protein remaining % ≤ 80%)”. The “Degradation of substrate protein IKZF3 (substrate protein remaining %)” value at IKZF3 was “A (A is defined as 0% ≤ substrate protein remaining % ≤ 80%)”. Further, the “Degradation of substrate protein CK1a (substrate protein remaining %)” value at CK1a was “B (B is defined as substrate protein remaining % > 80%)”. For the same compound, at GSPT1, the “Degradation of substrate protein GSPT1 (substrate protein remaining %)” value was “A (A is defined as 0% ≤ substrate protein remaining % ≤ 80%)”.
For the compound `CC(C)(C)[Si](C)(C)OCc1cncnc1NC1CCC(=O)NC1=O` (stereo not drawn) [GT-07639, 3-((5-(((tert-butyldimethylsilyl)oxy)methyl)pyrimidin-4-yl)amino)piperidine-2,6-dione], the “Degradation of substrate protein WEE1 (substrate protein remaining %)” value at WEE1 is reported as “A (A is defined as 0% ≤ substrate protein remaining % ≤ 80%)”. On IKZF1, the “Degradation of substrate protein IKZF1 (substrate protein remaining %)” value is reported as “A (A is defined as 0% ≤ substrate protein remaining % ≤ 80%)”. For the same compound, the “Degradation of substrate protein IKZF2 (substrate protein remaining %)” value at IKZF2 is recorded as “A (A is defined as 0% ≤ substrate protein remaining % ≤ 80%)”. Also, the “Degradation of substrate protein IKZF3 (substrate protein remaining %)” value on IKZF3 is recorded as “A (A is defined as 0% ≤ substrate protein remaining % ≤ 80%)”. Further, at CK1a, the “Degradation of substrate protein CK1a (substrate protein remaining %)” value is on record as “A (A is defined as 0% ≤ substrate protein remaining % ≤ 80%)”. For the same compound, the “Degradation of substrate protein GSPT1 (substrate protein remaining %)” value on GSPT1 is recorded as “A (A is defined as 0% ≤ substrate protein remaining % ≤ 80%)”.
For `O=Cc1ccc(NC2CCC(=O)NC2=O)cn1` (stereo not drawn) [GT-07640, 5-((2,6-dioxopiperidin-3-yl)amino)picolinaldehyde], the “Degradation of substrate protein WEE1 (substrate protein remaining %)” value at WEE1 was “A (A is defined as 0% ≤ substrate protein remaining % ≤ 80%)”. In addition, the “Degradation of substrate protein IKZF1 (substrate protein remaining %)” value at IKZF1 is recorded as “A (A is defined as 0% ≤ substrate protein remaining % ≤ 80%)”. In addition, the “Degradation of substrate protein IKZF2 (substrate protein remaining %)” value on IKZF2 is reported as “A (A is defined as 0% ≤ substrate protein remaining % ≤ 80%)”. In addition, the “Degradation of substrate protein IKZF3 (substrate protein remaining %)” value at IKZF3 is recorded as “A (A is defined as 0% ≤ substrate protein remaining % ≤ 80%)”. Besides, the “Degradation of substrate protein CK1a (substrate protein remaining %)” value at CK1a was “B (B is defined as substrate protein remaining % > 80%)”. In addition, on GSPT1, the “Degradation of substrate protein GSPT1 (substrate protein remaining %)” value is “A (A is defined as 0% ≤ substrate protein remaining % ≤ 80%)”.
